Laboratory results reported in US20180312886A1, “MICROBIAL PRODUCTION OF CHEMICAL PRODUCTS AND RELATED COMPOSITIONS, METHODS AND SYSTEMS” (CARGILL INCORPORATED, priority 2014, published 2018).

Legend:
[1] = target: KASI ketoacyl-ACP synthase (e.g., fabB in E. coli) (Escherichia coli, UniProt P0A953); conditions: KX3_0001, fed-batch medium, 24 h
Method: Cultures were started from freezer stocks by standard practice (Sambrook and Russell, 2001) into 50 mL of LB media plus 100 μg/mL ampicillin and grown to stationary phase overnight at 37° C. with rotation at 225 rpm. Five ml of this culture were transferred to 100 ml of fed-batch or AM2 media plus 40 g/L glucose, 100 kg/ml ampicillin, 1 mM IPTG in triplicate 250-ml baffled flasks, and incubated at 37° C., 225 rpm. […] Dry cell weight (DCW) is calculated as 0.33 times the measured OD600 value, based on baseline DCW to OD600 determinations. All data are the average of triplicate cultures.

[2] = tested on: fatty acid synthase system; assay type: cell-based, E. coli

Sequence of KASI ketoacyl-ACP synthase (e.g., fabB in E. coli) (P0A953 whole entry): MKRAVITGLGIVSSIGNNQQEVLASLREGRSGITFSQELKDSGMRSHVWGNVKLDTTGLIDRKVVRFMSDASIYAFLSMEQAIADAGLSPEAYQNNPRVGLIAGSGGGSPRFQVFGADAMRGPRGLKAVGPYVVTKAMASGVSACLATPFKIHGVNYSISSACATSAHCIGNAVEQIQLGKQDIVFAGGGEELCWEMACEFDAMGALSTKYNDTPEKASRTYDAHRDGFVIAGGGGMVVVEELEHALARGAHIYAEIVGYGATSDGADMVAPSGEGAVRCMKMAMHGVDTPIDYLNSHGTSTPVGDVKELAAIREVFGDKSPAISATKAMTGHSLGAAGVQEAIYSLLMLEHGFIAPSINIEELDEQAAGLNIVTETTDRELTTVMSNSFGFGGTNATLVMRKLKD

C/C=C/C/C=C/CCC(=O)[C@H]1O[C@H]1C(N)=O [cerulenin]
increase in specific productivity relative to the results without cerulenin [1]: 31 fold | increase in specific productivity relative to the results without cerulenin ([2]; BX3_0206, SM3 medium, 24 hours): approximately 40 fold | 3HP ([2]; strain BX3_0194, SM3 medium, cerulenin, 4 hr): 0.003 gIL
